Read-outs that look alike come from different tables or passages of the source.
Tests used:
[1] = test system: Ascaris lumbricoides var. suum; test: anthelmintic activity in mice infected with Ascaris, medicated feed; format: in vivo; details: Example 13, 0.05 percent in diet; control 2.66
Text: The feeds were utilized as diets for separate groups of mice, five mice per group. About twelve hours after initiation of the feeding, the mice were infected with Ascaris lumbricoides var. summ ova. Another group of five mice was fed the non-medicated feed to serve as a control but was similarly infected at the same time with Ascaris lumbricoides var. suum. All groups were fed their respective feed and maintained under normal laboratory conditions for a period of eight days, at which time all mice were taken off feed. On the ninth day, all mice were sacrificed and the lungs examined to determine the presence, and if present, numbers, of lesions of Ascaris lumbricoides var. suum.
Another evaluation was conducted under the procedures reported in Example 11, except that the rates were varied. The results were as follows:
In a further evaluation, the monoammonium salts of A16886I and A16886II were separately evaluated for the control of Ascaris lumbricoides var. suum. The evaluations were conducted in accordance with the procedure reported in Example 11 at a concentration in the diet of 0.05 percent.

[2] = test system: Pseudomonas solanacearum; format: in vivo, tomato plants; details: scale 0 (no control) to 4 (complete control)
[3] = test system: tomato plants; test: field trial, crop injury; format: in vivo; details: scale 0 (no injury) to 10 (dead plants)
Experimental: (§1) A mixture of the monoammonium salt of A16886I and the monoammonium salt of A16886II was tested under field conditions for the control of Xanthomonas vesicatoria (bacterial spot) on mature bearing tomato plants. The mixture of the two salts was dispersed in water at a concentration of 100, 200, or 400 parts per million and applied to the plants at the rate of 75 gallons per acre. Application was made with a CO2 sprayer at 50 psi. Plants were sprayed twice, on successive days; after the second spray had dried, all plants were wounded by sand blasting and then within one minute the plants were inoculated with a bacterial inoculum of Xanthomonas vesicatoria. Three days later, a third spray application of the aqueous formulation of A16886 was made. Readings were made one week and two weeks after the last spray treatment. Controls consisted of groups of plants (1) sand blasted and inoculated; (2) sand blasted only; (3) untreated; and (4) treated with streptomycin (on the same three-day spraying schedule, at a concentration of 100, 200, or 400 parts per million of aqueous solution, using a rate of 75 gallons per acre), sand blasted, and inoculated. The results were as set forth in the following table, in which crop injury is reported on a scale of 0-10, with 0=no injury and 10=dead plants; and control of bacterial spot is reported on a percentage basis.

[4] = test system: Xanthomonas vesicatoria; test: field trial, control of bacterial spot on tomato plants; format: in vivo
Experimental: as §1

[5] = First Reading, 100 parts/million
[6] = First Reading, 200 parts/million
[7] = First Reading, 400 parts/million
[8] = Second Reading, 100 parts/million
[9] = Second Reading, 200 parts/million
[10] = Second Reading, 400 parts/million

`NC(=O)OCC1=C(C(=O)O)N2C(=O)C(NC(=O)CCCC(N)C(=O)O)[C@H]2SC1` (stereo partly drawn) [7-(5-amino-5-carboxyvaleramido)-3-(carbamoyloxymethyl)-3-cephem-4-carboxylic acid] was tested, and the “Average Number of Lung Lesions Per Group” value [1] was 0.20, the “Disease Rating” value ([2]; Example 7, 10 ppm.) was 1 and the “Disease Rating” value ([2]; Example 7, 100 ppm.) was 4.

`COC1(NC(=O)CCCC(N)C(=O)O)C(=O)N2C(C(=O)O)=C(COC(N)=O)CS[C@@H]21` (stereo partly drawn) [7-(5-amino-5-carboxyvaleramido)-3-(carbamoyloxymethyl)-7-methoxy-3-cephem-4-carboxylic acid] was tested, and the “Average Number of Lung Lesions Per Group” value [1] was 0.46, the “Disease Rating” value ([2]; Example 7, 10 ppm.) was 2 and the “Disease Rating” value ([2]; Example 7, 100 ppm.) was 4. The rating ([2]; Example 8, 100 ppm.) was 4, the rating ([2]; Example 8, 200 ppm.) was 4 and the rating ([2]; Example 8, 400 ppm.) was 4.

For `[H]/N=C(/N)N[C@H]1[C@H](O)[C@@H](O)[C@H](O[C@@H]2O[C@@H](C)[C@](O)(C=O)[C@H]2O[C@@H]2O[C@@H](CO)[C@H](O)[C@@H](O)[C@@H]2NC)[C@@H](N/C(N)=N\[H])[C@@H]1O` [Streptomycin], the “Crop Injury Ratings” value [3, 5] was 0, the “Crop Injury Ratings” value [3, 6] was 0 and the “Crop Injury Ratings” value [3, 7] was 0. For the same compound, the “Crop Injury Ratings” value [3, 8] was 0, the “Crop Injury Ratings” value [3, 9] was 0 and the “Crop Injury Ratings” value [3, 10] was 0. The “Percent Bacterial Spot Control” value [4, 5] was 83%, the “Percent Bacterial Spot Control” value [4, 6] was 81% and the “Percent Bacterial Spot Control” value [4, 7] was 83%. For the same compound, the “Percent Bacterial Spot Control” value [4, 8] was 57%, the “Percent Bacterial Spot Control” value [4, 9] was 37% and the “Percent Bacterial Spot Control” value [4, 10] was 59%.

From US4191763A
